Reference: patent publication US7897580B2, “β glycolipids as immuno-modulators” (priority 2005, dated 2011)
Each block holds one substance with its values, some of them ahead of it.

How the values were obtained:
human Hep3B HCC = experiment: Hep3B hepatocellular carcinoma transplanted into athymic Balb/c mice (Example 2); assay type: in vivo; settings: for hepatic/splenic NKT lymphocyte ratio / reduction of tumor volume (% change from maximal volume) / tumors developed (% of animals) / maximal tumor volume: daily i.p. 1.5 μg for 25 days; for hepatic/splenic NKT lymphocyte ratio: PBS control 0.38, p<0.05, FIG. 7; for reduction of tumor volume (% change from maximal volume): controls 10% increase, p<0.05, FIG. 6; for tumors developed (% of animals): controls 100%, FIG. 4; for maximal tumor volume: controls 101.14 mm^3, p<0.05, FIG. 5; for STAT4 expression in splenocytes / STAT6 expression in splenocytes: vs. controls, FIG. 9
From the text: Splenocytes were isolated and red blood cells removed as previously described [Vicari, A. P., et al., Immunology Today 17(2):71 (1996)]. Intrahepatic lymphocytes were isolated from all groups of mice at the end of the study, as previously described, with some modifications [Vicari et al., (1996) ibid.; Bleicher, P. A., et al., Science 250:679-682 (1990)]. […] The connective tissue and the gall bladder were removed, and livers were place in a 10-ml dish in cold sterile PBS. Livers and spleens were crushed through a stainless mesh (size 60, Sigma Chemical Co., St. Louis Mo.). Cell suspension was placed in a 50 ml tube for 3 minutes and washed twice in cold PBS (1,250×rpm for 10 minutes), and debris was removed. Cells were re-suspended in PBS, cell suspension was placed through a nylon mesh presoaked in PBS, and unbound cells were collected. Cells were washed twice in 45 ml PBS (1,250×rpm in room temperature). For liver and spleen lymphocyte isolation 20 ml of histopague 1077 (Sigma Diagnostics, St. Louis, Mo.) were slowly placed underneath the cells suspended in 7 ml of PBS, in a 50-ml tube. The tube was centrifuged at 1,640 rpm for 15 minutes at room temperature. Cells at the interface were collected, diluted in a 50-ml tube, and washed twice with ice-cold PBS (1,250 rpm for 10 minutes). Approximately 1×10^6 cells/mouse liver were recovered. The viability by trypan blue staining was more than 95%. Both splenocytes and liver-associated lymphocytes were isolated from all animals in all experimental groups.
Immediately following lymphocyte isolation, triplicates of 2-5×10^4 cells/500 μl PBS were put into Falcon 2052 tubes incubated with 4 ml of 1% BSA for 10 minutes, and centrifuged at 1400 rpm for 5 minutes. Analysis of lymphocyte subpopulations was performed using anti-NK1.1, anti-CD3, anti-CD4 and anti CD-8 antibodies. Cells were washed twice in 1% BSA, and kept in 4° C. until reading. For the control group, only 5 μl of 1% BSA was added. Analytical cell sorting was performed on 1×10^4 cells from each group with a fluorescence-activated cell sorter (FACSTAR plus, Becton Dickinson). Only live cells were counted, and background fluorescence from non-antibody-treated lymphocytes was deducted from the levels obtained. Gates were set on forward- and side-scatters to exclude dead cells and red blood cells. The data were analyzed with Consort 30 two-color contour plot program (Becton Dickinson, Oxnard, Calif.), or the CELLQuest program.
Blood was drawn from mice in all groups and centrifuged at 14,000 rpm. Serum INFγ, IL2, IL4, IL10 and IL-12 levels were measured by “sandwich” ELISA using Genzyme Diagnostics kits (Genzyme Diagnostics, Mass.).
To determine the clinical and immunological consequences of administration of different β-glycolipids such as β-glucosylceramide (GluC), β-lactosyl-ceramide (LacC), and β-galactosyl-ceramide (GalC) and of ceramide on hepatocellular carcinoma (HCC), mice transplanted with human Hep3B HCC cells, were studied. Five groups of athymic Balb/c mice, consisting of 8 mice each, were sublethally irradiated and transplanted with human Hep3B HCC, followed by daily intraperitoneal injections of GluC, LacC, GalC, ceramide (1.5 μg in 100 μl PBS) or PBS (100μ) for 25 days. Animals were followed for tumor size and weight and for intrahepatic and intrasplenic lymphocyte subpopulations, serum cytokine levels and expression of STAT1, STAT4 and STAT6 in splenocytes.

TNBS induced colitis = experiment: TNBS-induced colitis, mixture of β-GluC and β-LacC vs β-LacC alone (Example 3); assay type: in vivo, mice; settings: with TNBS; for Weight: share of mice, TNBS alone: Weight loss, listed as β-LC
Method: (§1) 2,4,6-trinitrobenzene sulfonic acid (TNBS)—colitis was induced by intracolonic instillation of TNBS, 1 mg/mouse, dissolved in […] of 50% ethanol as described. [Collins, C., etal., Eur. J. Immunol. 26:3114-3118 (1996)].
(§2) Diarrhea was followed daily throughout the study.
(§3) Colitis assessment was performed 14 days following colitis induction using standard parameters [Madsen, K. L., et al., Gastroenterology 113:151-159 (1997); Trop, S., et al., Hepatology 27:746-755 (1999)].
Four macroscopic parameters were determined, namely: degree of colonic ulcerations; intestinal and peritoneal adhesions; wall thickness; and degree of mucosal edema. Each parameter was graded on a scale from 0 (completely normal) to 4 (most severe) by two experienced blinded examiners.
For histological evaluation of inflammation, distal colonic tissue (last 10 cm) was removed and fixed in 10% formaldehyde. Five paraffin sections from each mouse were then stained with hematoxylin-eosin by using standard techniques. The degree of inflammation on microscopic cross sections of the colon was graded semiquantitatively from 0 to 4 [Madsen et al., (1997) ibid.; Trop et al., Hepatology 27:746-755 (1999)]. Grade 0: normal with no signs of inflammation; Grade 1: very low level of leukocyte infiltration; Grade 2: low level of leukocyte infiltration; and Grade 3: high level of infiltration with high vascular density, and bowel wall thickening; Grade 4: transmural infiltrates with loss of goblet cells, high vascular density, wall thickening, and disruption of normal bowel architecture. The grading was performed by two experienced blinded examiners.
To determine the possible immuno-modulation effect of a mixture of different β-glycolipids, the effect of a mixture of β-Glucocerebroside and β-Lactosyl-ceramide was tested using a murine model of colitis.
As summarized in Table 3, five groups of mice were studied, each consisting of 10 mice. Colitis was induced by intracolonic installation of trinitrobenzenesulfonic acid (TNBS) on day 1 and 5 in groups A, B and D. Group A mice were fed regular chow diet. […]

TNBS colitis = experiment: TNBS-induced experimental colitis, single β-glycolipids (Example 1); assay type: in vivo, C57Bl mice; settings: oral 15 μg daily, compared with controls
Method: as §1, §2, §3
Four macroscopic parameters were determined, namely: degree of colonic ulcerations; intestinal and peritoneal adhesions; wall thickness; and degree of mucosal edema. Each parameter was graded on a scale from 0 (completely normal) to 4 (most severe) by two experienced blinded examiners. […]
Immediately following lymphocyte isolation, triplicates of 2-5×10^4 cells/500 μl PBS were put into Falcon 2052 tubes incubated with 4 ml of 1% BSA for 10 minutes, and centrifuged at 1400 rpm for 5 minutes. […] Cells were washed twice in 1% BSA, and kept in 4° C. until reading. […] Analytical cell sorting was performed on 1×10^4 cells from each group with a fluorescence-activated cell sorter (FACSTAR plus, Becton Dickinson). Only live cells were counted, and background fluorescence from non-antibody-treated lymphocytes was deducted from the levels obtained. […]

[1] = Mixture of β-GluC and β-LacC or β-LacC alone in mice not treated with TNBS, control groups (Example 3); assay type: in vivo; settings: without TNBS
Method: As summarized in Table 3, five groups of mice were studied, each consisting of 10 mice. Colitis was induced by intracolonic installation of trinitrobenzenesulfonic acid (TNBS) on day 1 and 5 in groups A, B and D. Group A mice were fed regular chow diet. Group B mice received oral (PO) 15 μg daily of a mixture of β-GluC and β-LacC, group D received only β-LacC. Groups C and E mice were not treated with TNBS, but received oral (PO) 15 μg daily of a mixture of β-GluC and β-LacC or only β-LacC, respectively, and served as control groups.
Mice were followed for macroscopic and microscopic colitis scores, as well as for survival and functional status and weight.

Substance: ceramide
hepatic/splenic NKT lymphocyte ratio (human Hep3B HCC): 0.85
reduction of tumor volume (% change from maximal volume) (human Hep3B HCC): 81%
tumors developed (% of animals) (human Hep3B HCC): 50%
maximal tumor volume (human Hep3B HCC): 64.4 mm^3
STAT4 expression in splenocytes (human Hep3B HCC): increased
STAT6 expression in splenocytes (human Hep3B HCC): increased

Substance: β-galactosyl-ceramide [GalC]
reduction of tumor volume (% change from maximal volume) (human Hep3B HCC): 49%
tumors developed (% of animals) (human Hep3B HCC): 71%
maximal tumor volume (human Hep3B HCC): 86.1 mm^3
STAT4 expression in splenocytes (human Hep3B HCC): increased
STAT6 expression in splenocytes (human Hep3B HCC): increased

Substance: β-glucosylceramide
hepatic/splenic NKT lymphocyte ratio (human Hep3B HCC): 6.13
reduction of tumor volume (% change from maximal volume) (human Hep3B HCC): 43%
tumors developed (% of animals) (human Hep3B HCC): 87%
maximal tumor volume (human Hep3B HCC): 71.4 mm^3

Activity [1]: Normal
Weight ([1]; share of mice): In 100% increase
Substance: β-lactosyl-ceramide [LacC]
hepatic/splenic NKT lymphocyte ratio (human Hep3B HCC): 1.94
reduction of tumor volume (% change from maximal volume) (human Hep3B HCC): 78%
tumors developed (% of animals) (human Hep3B HCC): 43%
maximal tumor volume (human Hep3B HCC): 77.9 mm^3
STAT4 expression in splenocytes (human Hep3B HCC): increased
STAT6 expression in splenocytes (human Hep3B HCC): increased
Weight (TNBS induced colitis; share of mice with no weight change): In 90% no change
Weight (TNBS induced colitis; share of mice with weight increase): In 10% increase
Activity (TNBS induced colitis; TNBS alone: Lethargic): Normal
alleviation of colitis (microscopic colitis scores) (TNBS colitis; FIG. 1): most marked
alleviation of colitis (microscopic colitis scores) (TNBS colitis; FIG. 1, listed as Lactosyl-ceramide): most potent
